pIC50: −log10 of the molar value.

Test [1] concerns the target T1, Human M3 receptor (Homo sapiens, UniProt P20309).
T1 construct: purchased Perkin Elmer
Nature of the test: biochemical. Type of test: binding. The note with it: read-out: M3 Range.

For test [2], the target named is T2, Human β2 adrenoceptor (Homo sapiens, UniProt P07550).
T2 construct: purchased Perkin Elmer
Nature of the test: β2 adrenoceptor radioligand binding assay. How it is done:
β2 Adrenoceptor Radioligand Binding Assay
Human β2 adrenoceptor membranes (7.5 ug/well) from Perkin Elmer were incubated with 0.3 nM 125-I Cyanopindolol with or without test compounds, or a saturating concentration of s-propranolol (2 μM) for the determination of non-specific binding. The assay was carried out in 96-well polypropylene plates in a volume of 200 ul. The assay buffer used was 25 mM HEPES, 0.5% BSA (w/v), 1 mM EDTA, 0.02% ascorbic acid (v/v), (pH 7.4). The final assay concentration of DMSO was 0.5% (v/v). The plates were sealed and incubated for 1 h at room temperature on an orbital shaker (slow speed). Membranes were harvested onto 96-well unifilter GF/C filter plates pre-treated with 0.5% polyethyleneimine (v/v), using a filter manifold, washed six times with 200 ul of wash buffer containing 10 mM HEPES and 500 mM NaCl. The plates were dried before addition of 50 μl of microscint-0, sealed then read in a Trilux Microbeta scintillation counter. IC50 values are determined from competition curves using a non-linear curve fitting program. Ki values were calculated from IC50 values by the Cheng and Prusoff equation.

T2 sequence (P07550 whole entry): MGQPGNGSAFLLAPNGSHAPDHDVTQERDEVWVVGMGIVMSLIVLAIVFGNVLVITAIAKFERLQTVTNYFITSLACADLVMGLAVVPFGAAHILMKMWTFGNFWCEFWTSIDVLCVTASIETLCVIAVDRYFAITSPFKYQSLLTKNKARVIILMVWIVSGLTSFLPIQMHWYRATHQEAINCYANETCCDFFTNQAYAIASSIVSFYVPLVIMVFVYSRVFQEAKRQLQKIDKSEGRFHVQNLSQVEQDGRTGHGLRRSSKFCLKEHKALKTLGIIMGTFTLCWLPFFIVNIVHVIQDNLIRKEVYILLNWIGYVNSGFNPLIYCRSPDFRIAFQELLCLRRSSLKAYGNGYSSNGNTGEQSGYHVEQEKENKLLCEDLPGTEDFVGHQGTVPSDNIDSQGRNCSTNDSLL
T1 sequence (P20309 whole entry): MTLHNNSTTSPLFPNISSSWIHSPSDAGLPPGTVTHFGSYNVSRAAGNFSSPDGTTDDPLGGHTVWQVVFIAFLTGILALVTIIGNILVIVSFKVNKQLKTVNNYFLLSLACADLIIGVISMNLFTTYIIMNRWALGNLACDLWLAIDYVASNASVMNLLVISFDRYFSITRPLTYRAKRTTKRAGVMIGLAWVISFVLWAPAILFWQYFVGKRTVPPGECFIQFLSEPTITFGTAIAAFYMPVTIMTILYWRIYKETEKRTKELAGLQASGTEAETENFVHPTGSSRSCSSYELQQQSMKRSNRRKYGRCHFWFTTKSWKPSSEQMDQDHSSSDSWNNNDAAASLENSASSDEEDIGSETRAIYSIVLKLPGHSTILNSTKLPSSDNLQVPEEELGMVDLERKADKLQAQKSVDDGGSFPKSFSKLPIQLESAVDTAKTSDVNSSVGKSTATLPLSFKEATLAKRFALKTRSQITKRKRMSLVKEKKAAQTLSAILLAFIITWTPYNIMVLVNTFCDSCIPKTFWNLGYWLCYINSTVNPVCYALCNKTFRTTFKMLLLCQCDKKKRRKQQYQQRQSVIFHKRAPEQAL

In the case of `O=C(NCc1ccc(-c2cccc([C@](O)(C(=O)OCC3CCN(Cc4ccccc4)CC3)c3ccccc3)c2)s1)c1ccc(CNC[C@H](O)c2ccc(O)c3[nH]c(=O)ccc23)cc1Cl` [Compound 1, (1-Benzylpiperidin-4-yl)methyl (S)-2-(3-(5-((2-chloro-4-((((R)-2-hydroxy-2-(8-hydroxy-2-oxo-1,2-dihydroquinolin-5-yl)ethyl)amino)methyl)benzamido-)methyl)thiophen-2-yl)phenyl)-2-hydroxy-2-phenylacetate], the pIC50 in test [1] is 8.52 to 9.52; in test [2], more than 9.52.
As for `O=C(NCc1ccc(-c2cccc([C@](O)(C(=O)OCC3CCN(Cc4ccccc4)CC3)c3ccccc3)c2)s1)c1ccc(CNC[C@H](O)c2ccc(O)c3[nH]c(=O)ccc23)cc1` [Compound 1A, (1-Benzylpiperidin-4-yl)methyl (S)-2-hydroxy-2-(3-(5-((4-((((R)-2-hydroxy-2-(8-hydroxy-2-oxo-1,2-dihydroquinolin-5-yl)ethyl)amino)methyl)benzamido)-methyl)thiophen-2-yl)phenyl)-2-phenylacetate], the pIC50 is 8.52 to 9.52 in test [1] and more than 9.52 in test [2].
Taken in the same sequence, the figures for `COc1cc(C(=O)NCc2ccc(-c3cccc([C@](O)(C(=O)OCC4CCN(Cc5ccccc5)CC4)c4ccccc4)c3)s2)ccc1CNC[C@H](O)c1ccc(O)c2[nH]c(=O)ccc12` [Compound 1B, (1-Benzylpiperidin-4-yl)methyl (S)-2-hydroxy-2-(3-(5-((4-((((R)-2-hydroxy-2-(8-hydroxy-2-oxo-1,2-dihydroquinolin-5-yl)ethyl)amino)methyl)-3-methoxybenzamido)methyl)thiophen-2-yl)phenyl)-2-phenylacetate] were 8.52 to 9.52 and more than 9.52.
Turning to `COc1cc(CNC[C@H](O)c2ccc(O)c3[nH]c(=O)ccc23)ccc1C(=O)NCc1ccc(-c2cccc([C@](O)(C(=O)OCC3CCN(Cc4ccccc4)CC3)c3ccccc3)c2)s1` [Compound 1C, (1-Benzylpiperidin-4-yl)methyl (S)-2-hydroxy-2-(3-(5-((4-((((R)-2-hydroxy-2-(8-hydroxy-2-oxo-1,2-dihydroquinolin-5-yl)ethyl)amino)methyl)-2-methoxybenzamido)methyl)thiophen-2-yl)phenyl)-2-phenylacetate], the pIC50 in test [1] and in test [2] was 8.52 to 9.52 in each case.
For `COc1cc(C(=O)NCc2ccc(-c3cccc([C@](O)(C(=O)OCC4CCN(Cc5ccccc5)CC4)c4ccccc4)c3)s2)c(Cl)cc1CNC[C@H](O)c1ccc(O)c2[nH]c(=O)ccc12` [Compound 1D, (1-Benzylpiperidin-4-yl)methyl (S)-2-(3-(5-((2-chloro-4-((((R)-2-hydroxy-2-(8-hydroxy-2-oxo-1,2-dihydroquinolin-5-yl)ethyl)amino)methyl)-5-methoxybenzamido)methyl)thiophen-2-yl)phenyl)-2-hydroxy-2-phenylacetate], the pIC50 in test [1] is 8.52 to 9.52; in test [2], more than 9.52.
For `COc1cc(C(=O)NCc2ccc(-c3cccc([C@](O)(C(=O)OCC4CCN(Cc5ccccc5)CC4)c4ccccc4)c3)s2)c(F)cc1CNC[C@H](O)c1ccc(O)c2[nH]c(=O)ccc12` [Compound 1E, (1-Benzylpiperidin-4-yl)methyl (S)-2-(3-(5-((2-fluoro-4-((((R)-2-hydroxy-2-(8-hydroxy-2-oxo-1,2-dihydroquinolin-5-yl)ethyl)amino)methyl)-5-methoxybenzamido)methyl)thiophen-2-yl)phenyl)-2-hydroxy-2-phenylacetate], the pIC50 was 8.52 to 9.52 in test [1] and more than 9.52 in test [2].
Taken in the same sequence, the figures for `O=C(NCc1ccc(-c2cccc([C@](O)(C(=O)OCC3CCN(Cc4ccccc4)CC3)c3ccccc3)c2)s1)c1ccc(CNC[C@H](O)c2ccc(O)c3[nH]c(=O)ccc23)c(C(F)(F)F)c1` [Compound 1F, (1-Benzylpiperidin-4-yl)methyl (S)-2-hydroxy-2-(3-(5-((4-((((R)-2-hydroxy-2-(8-hydroxy-2-oxo-1,2-dihydroquinolin-5-yl)ethyl)amino)methyl)-3-(trifluoromethyl)benzamido)methyl)thiophen-2-yl)phenyl)-2-phenylacetate] were less than 8.52 and 8.52 to 9.52.
Taken in the same sequence, the figures for `O=C(NCc1ccc(-c2cccc([C@](O)(C(=O)OCC3CCN(Cc4ccccc4)CC3)c3ccccc3)c2)s1)c1ccc(CNC[C@H](O)c2ccc(O)c3[nH]c(=O)ccc23)cc1F` [Compound 1G, (1-Benzylpiperidin-4-yl)methyl (S)-2-(3-(5-((2-fluoro-4-((((R)-2-hydroxy-2-(8-hydroxy-2-oxo-1,2-dihydroquinolin-5-yl)ethyl)amino)methyl)-benzamido)methyl)thiophen-2-yl)phenyl)-2-hydroxy-2-phenylacetate] were 8.52 to 9.52 and more than 9.52.
On the same counts, the results for `O=C(NCc1ccc(-c2cccc([C@](O)(C(=O)OCC3CCN(Cc4ccccc4)CC3)c3ccccc3)c2)s1)c1ccc(CCNC[C@H](O)c2ccc(O)c3[nH]c(=O)ccc23)cc1` [Compound 1H, (1-Benzylpiperidin-4-yl)methyl (S)-2-hydroxy-2-(3-(5-((4-(2-(((R)-2-hydroxy-2-(8-hydroxy-2-oxo-1,2-dihydroquinolin-5-yl)ethyl)amino)ethyl)-benzamido)methyl)thiophen-2-yl)phenyl)-2-phenylacetate] are 8.52 to 9.52 and 8.52 to 9.52.
In the case of `CCOc1cc(C(=O)NCc2ccc(-c3cccc([C@](O)(C(=O)OCC4CCN(Cc5ccccc5)CC4)c4ccccc4)c3)s2)ccc1CNC[C@H](O)c1ccc(O)c2[nH]c(=O)ccc12` [Compound 1I, (1-Benzylpiperidin-4-yl)methyl (S)-2-(3-(5-((3-ethoxy-4-((((R)-2-hydroxy-2-(8-hydroxy-2-oxo-1,2-dihydroquinolin-5-yl)ethyl)amino)methyl)-benzamido)methyl)thiophen-2-yl)phenyl)-2-hydroxy-2-phenylacetate], the pIC50 in test [1] and in test [2] was 8.52 to 9.52 throughout.
As for `O=C(NCc1ccc(-c2cccc([C@](O)(C(=O)OCC3CCN(Cc4ccccc4)CC3)c3ccccc3)c2)s1)c1ccc(CNC[C@H](O)c2ccc(O)c3[nH]c(=O)ccc23)c(F)c1` [Compound 1J, (1-Benzylpiperidin-4-yl)methyl (S)-2-(3-(5-((3-fluoro-4-((((R)-2-hydroxy-2-(8-hydroxy-2-oxo-1,2-dihydroquinolin-5-yl)ethyl)amino)methyl)-benzamido)methyl)thiophen-2-yl)phenyl)-2-hydroxy-2-phenylacetate], the results for the pIC50 in test [1] and in test [2] were 8.52 to 9.52 and more than 9.52, respectively.
On the same counts, the results for `COc1c(CNC[C@H](O)c2ccc(O)c3[nH]c(=O)ccc23)ccc(C(=O)NCc2ccc(-c3cccc([C@](O)(C(=O)OCC4CCN(Cc5ccccc5)CC4)c4ccccc4)c3)s2)c1F` [Compound 1K, (1-Benzylpiperidin-4-yl)methyl (S)-2-(3-(5-((2-fluoro-4-((((R)-2-hydroxy-2-(8-hydroxy-2-oxo-1,2-dihydroquinolin-5-yl)ethyl)amino)methyl)-3-methoxybenzamido)methyl)thiophen-2-yl)phenyl)-2-hydroxy-2-phenylacetate] are 8.52 to 9.52 and more than 9.52.
In the case of `O=C(NCc1ccc(-c2cccc([C@](O)(C(=O)OCC3CCN(Cc4ccccc4)CC3)c3ccccc3)c2)s1)c1ccc(CNC[C@H](O)c2ccc(O)c3[nH]c(=O)ccc23)nc1` [Compound 1L, (1-Benzylpiperidin-4-yl)methyl (S)-2-hydroxy-2-(3-(5-((6-((((R)-2-hydroxy-2-(8-hydroxy-2-oxo-1,2-dihydroquinolin-5-yl)ethyl)amino)methyl)-nicotinamido)methyl)thiophen-2-yl)phenyl)-2-phenylacetate], the pIC50 in test [1] was 8.52 to 9.52; in test [2], more than 9.52.
In the case of `CN1CCC(OC(=O)[C@](O)(c2ccccc2)c2cccc(-c3ccc(CNC(=O)c4ccc(CNC[C@H](O)c5ccc(O)c6[nH]c(=O)ccc56)cc4)s3)c2)CC1` [Compound 2, 1-Methylpiperidin-4-yl (S)-2-hydroxy-2-(3-(5-((4-((((R)-2-hydroxy-2-(8-hydroxy-2-oxo-1,2-dihydroquinolin-5-yl)ethyl)amino)methyl)benzamido)-methyl)thiophen-2-yl)phenyl)-2-phenylacetate], the pIC50 in test [2] is more than 9.52.
Take `O=C(NCc1ccc(-c2cccc([C@](O)(C(=O)OC[C@H]3CCCN(Cc4ccccc4)C3)c3ccccc3)c2)s1)c1ccc(CNC[C@H](O)c2ccc(O)c3[nH]c(=O)ccc23)cc1` [Compound 2C, ((S)-1-Benzylpiperidin-3-yl)methyl (S)-2-hydroxy-2-(3-(5-((4-((((R)-2-hydroxy-2-(8-hydroxy-2-oxo-1,2-dihydroquinolin-5-yl)ethyl)amino)-methyl)benzamido)methyl)thiophen-2-yl)phenyl)-2-phenylacetate]: in test [2], the pIC50 is 8.52 to 9.52.
In test [2], `O=C(NCc1ccc(-c2cccc([C@](O)(C(=O)OC3CCN(Cc4ccccc4)CC3)c3ccccc3)c2)s1)c1ccc(CNC[C@H](O)c2ccc(O)c3[nH]c(=O)ccc23)cc1` [Compound 2F, 1-Benzylpiperidin-4-yl (S)-2-hydroxy-2-(3-(5-((4-((((R)-2-hydroxy-2-(8-hydroxy-2-oxo-1,2-dihydroquinolin-5-yl)ethyl)amino)methyl)-benzamido)methyl)thiophen-2-yl)phenyl)-2-phenylacetate] showed a pIC50 of more than 9.52.

Source of the values: patent US10196386B2, “Compounds having muscarinic receptor antagonist and beta2 adrenergic receptor agonist activity” (priority 2016, dated 2019).
